# Where two headings read alike, the source gives them in different places.
# Tests used:
# Myzus persicae [1] = experiment: Myzus persicae - oral test (MYZUPE O); format: in vivo; settings: for efficacy (aphids killed) / pest or weed control at 20 ppm: 20 ppm, after 5 days; for Emax at 0.8 ppm / Emax at 4 ppm / pest or weed control at 20 ppm: Myzus persicae, po, 120 h; for Emax at 0.8 ppm / Emax at 4 ppm: MYZUPE O, 5 dat, read-out: % efficacy; for pest or weed control at 20 ppm: read-out: efficacy (aphids killed)
# Procedure: Solvent: 100 parts by weight of acetone
# 50 μl of the active compound preparation are transferred into microtitre plates and made up to a final volume of 200 μl with 150 μl of IPL41 insect medium (33%+15% sugar). Subsequently, the plates are sealed with parafilm, which a mixed population of green peach aphids (Myzus persicae) within a second microtitre plate is able to puncture and imbibe the solution through it.
# After 5 days, the efficacy in % is determined. 100% means that all the aphids have been killed; 0% means that no aphids have been killed.
# Myzus persicae—Oral Test (MYZUPE O)
# (§1) After the desired period of time (dat), the efficacy in % is determined. 100% means that all the aphids have been killed; 0% means that no aphids have been killed.
# [2] = log P by reversed-phase HPLC (C18), EEC directive 79/831 Annex V.A8, neutral range; format: physicochemical; settings: pH 7.8; for chromatographic logP: reversed-phase HPLC column (C18), read-out: Logp [n]
# Procedure: a) The log P values reported in the tables and preparation examples above were determined in accordance with EEC directive 79/831 Annex V.A8 by HPLC (High Performance Liquid Chromatography) using a reversed-phase column (C18). Temperature 43° C. The calibration is effected with unbranched alkan-2-ones (having 3 to 16 carbon atoms), for which the log P values are known. […] The log P values for the acidic range (as log P [a]) and/or for the neutral range (as log P [n]) were stated in the tables and preparation examples above.
# Myzus persicae [3] = experiment: Myzus persicae - spray test (MYZUPE); format: in vivo; settings: for efficacy (aphids killed) / pest or weed control at 500 g/ha: 500 g/ha, Chinese cabbage leaf discs, after 5-6 days; for Emax at 100 g/ha / pest or weed control at 500 g/ha: Myzus persicae; for Emax at 100 g/ha: MYZUPE, 100 g of ai/ha, read-out: % efficacy; for pest or weed control at 500 g/ha: foliar, read-out: efficacy (aphids killed)
# Procedure: Myzus persicae—Spray Test
# Solvents: 78 parts by weight of acetone • • 1.5 parts by weight of dimethylformamide
# (§2) Emulsifier: alkylaryl polyglycol ether
# After 5-6 days, the efficacy in % is determined. 100% means that all the aphids have been killed; 0% means that no aphids have been killed.
# Myzus persicae—Spray Test (MYZUPE)
# (§3) Solvents: 78.0 parts by weight of acetone • • 1.5 parts by weight of dimethylformamide
# as §1
# Tetranychus urticae = Tetranychus urticae - spray test, OP-resistant (TETRUR); format: in vivo; settings: for Emax at 500 g/ha: Tetranychus urticae, 144 h, TETRUR, 6 dat, read-out: % efficacy; for efficacy (spider mites killed): 500 g/ha, bean leaf discs, after 6 days
# Procedure: Tetranychus urticae—Spray Test, OP-Resistant
# as §3, §2
# After 6 days, the efficacy in % is determined. 100% means that all the spider mites have been killed; 0% means that no spider mites have been killed.
# Tetranychus urticae—Spray Test; OP Resistant (TETRUR)
# After the desired period of time (dat), the efficacy in % is determined. 100% means that all the spider mites have been killed; 0% means that none of the spider mites have been killed.
# Boophilus microplus = Boophilus microplus - injection test; format: in vivo; settings: 20 μg/animal, engorged adult female cattle ticks, after 7 days
# Procedure: Boophilus microplus—Injection Test
# Solvent: dimethyl sulphoxide
# To produce a suitable preparation of active compound, 10 mg of active compound are mixed with 0.5 ml of solvent and the concentrate is diluted with solvent to the desired concentration.
# 1 μl of the active compound solution is injected into the abdomen of 5 engorged adult female cattle ticks (Boophilus microplus). The animals are transferred into dishes and kept in a climate-controlled room.
# Efficacy is assessed after 7 days by laying of fertile eggs. Eggs which are not visibly fertile are stored in a climate-controlled cabinet until the larvae hatch after about 42 days. An efficacy of 100% means that none of the ticks has laid any fertile eggs; 0% means that all the eggs are fertile.
# [4] = neutral range, HPLC C18, 43° C.
smiles,measurement,setting,value
CN(C(=O)c1cnc(N2CCCC2)n1C)c1cccnc1 [I-1-019],efficacy (aphids killed),Myzus persicae [1],100%
same,Logp [n],[2],1.19
same,efficacy (aphids killed),Myzus persicae [3],100%
"O=C(Nc1cccnc1)c1c[nH]cn1 [Ex. No. 13 WO2011/009804, reference compound]",Emax at 0.8 ppm,Myzus persicae [1],0%
same,Emax at 4 ppm,Myzus persicae [1],0%
same,Emax at 100 g/ha,"Myzus persicae [3]; 144 h, 6 dat",0%
same,Emax at 500 g/ha,Tetranychus urticae,0%
CN(C(=O)c1cnc(-n2cc(C(F)(F)F)cn2)n1C)c1cccnc1 [I-1-006],pest or weed control at 20 ppm,Myzus persicae [1],100%
same,Emax at 0.8 ppm,Myzus persicae [1],100%
same,chromatographic logP,[2]; [4],1.82
same,Emax at 100 g/ha,"Myzus persicae [3]; 144 h, 6 dat",100%
same,pest or weed control at 500 g/ha,Myzus persicae [3],100%
Cc1ccn(-c2ncc(C(=O)N(C)c3cccnc3)n2C)n1 [I-1-024],Logp [n],[2]; [4],1.18
CN(C(=O)c1cnc(-n2cnc(C#N)n2)n1C)c1cccnc1 [I-1-031],Logp [n],[2]; [4],1.22
same,efficacy (laying of fertile eggs),Boophilus microplus,80%
CCN(C(=O)c1cnc(-n2cc(C(F)(F)F)cn2)n1C)c1cccnc1 [I-1-014],efficacy (aphids killed),Myzus persicae [1],100%
same,Logp [n],[2]; [4],2.09
same,efficacy (aphids killed),Myzus persicae [3],90%
CN(C(=O)c1cnc(-n2cnc(Cl)n2)n1C)c1cccnc1 [I-1-026],Logp [n],[2]; [4],1.17
"CN(C(=O)c1cnc(Cl)n1C)c1cccnc1 [2-Chloro-N, 1-dimethyl-N-(pyridin-3-yl)-1H-imidazole-5-carboxamide]",chromatographic logP,[2]; [4],0.88
CN(C(=O)c1cnc(-n2ccc(C#N)n2)n1C)c1cccnc1 [I-1-003],efficacy (aphids killed),Myzus persicae [1],100%
same,Logp [n],[2]; [4],1.31
same,efficacy (aphids killed),Myzus persicae [3],90%
CN(C(=O)c1cnc(-n2ccnc2)n1C)c1cccnc1 [I-1-025],Logp [n],[2],0.56
CCN(C(=O)c1cnc(-n2ccc(C#N)n2)n1C)c1cccnc1 [I-1-029],Logp [n],[2]; [4],1.53
CN(C(=O)c1cnc(-n2cccc2)n1C)c1cccnc1 [I-1-001],pest or weed control at 20 ppm,Myzus persicae [1],100%
same,Emax at 0.8 ppm,Myzus persicae [1],100%
same,Emax at 4 ppm,Myzus persicae [1],100%
same,chromatographic logP,[2]; [4],1.27
same,Emax at 100 g/ha,"Myzus persicae [3]; 144 h, 6 dat",90%
same,pest or weed control at 500 g/ha,Myzus persicae [3],90%
CN(C(=O)c1cnc(-n2cc3c(n2)CCC3)n1C)c1cccnc1 [I-1-027],Logp [n],[2]; [4],1.5
"Cc1nc(C(=O)Nc2cccnc2)c[nH]1 [Ex. No. 14 WO2011/009804, reference compound]",Emax at 0.8 ppm,Myzus persicae [1],0%
same,Emax at 4 ppm,Myzus persicae [1],0%
same,Emax at 100 g/ha,Myzus persicae [3]; 5/6 dat,0%
same,Emax at 500 g/ha,Tetranychus urticae,0%
CN(C(=O)c1cnc(-n2ncc(C#N)c2N)n1C)c1cccnc1 [I-1-028],Logp [n],[2]; [4],0.78
CC1CCN(c2ncc(C(=O)N(C)c3cccnc3)n2C)CC1 [I-1-016],efficacy (aphids killed),Myzus persicae [1],100%
same,Logp [n],[2]; [4],1.87
same,efficacy (aphids killed),Myzus persicae [3],90%
Cc1cn(-c2ncc(C(=O)N(C)c3cccnc3)n2C)nc1C [I-1-023],Logp [n],[2]; [4],1.42
Cc1cnn(-c2ncc(C(=O)N(C)c3cccnc3)n2C)c1 [I-1-021],efficacy (aphids killed),Myzus persicae [1],100%
same,Logp [n],[2]; [4],1.29
same,efficacy (aphids killed),Myzus persicae [3],100%
"CN(C(=O)c1cnc(N2CCOCC2)n1C)c1cccnc1 [I-1-009, N,1-Dimethyl-2-(morpholin-4-yl)-N-(pyridin-3-yl)-1H-imidazole-5-carboxamide]",pest or weed control at 20 ppm,Myzus persicae [1],100%
same,Emax at 0.8 ppm,Myzus persicae [1],70%
same,chromatographic logP,[2]; [4],0.85
same,Emax at 100 g/ha,"Myzus persicae [3]; 144 h, 6 dat",70%
same,pest or weed control at 500 g/ha,Myzus persicae [3],100%
same,efficacy (spider mites killed),Tetranychus urticae,90%
same,Emax at 500 g/ha,Tetranychus urticae,90%
CC(C)c1cnn(-c2ncc(C(=O)N(C)c3cccnc3)n2C)c1 [I-1-030],Logp [n],[2]; [4],1.84
CSc1ccn(-c2ncc(C(=O)N(C)c3cccnc3)n2C)n1 [I-1-012],efficacy (aphids killed),Myzus persicae [1],100%
same,Logp [n],[2]; [4],1.57
same,efficacy (aphids killed),Myzus persicae [3],90%
CN(C(=O)c1cnc(-n2cnc(C(F)(F)F)c2)n1C)c1cccnc1 [I-1-010],pest or weed control at 20 ppm,Myzus persicae [1],100%
same,Emax at 0.8 ppm,Myzus persicae [1],100%
same,Emax at 4 ppm,Myzus persicae [1],100%
same,chromatographic logP,[2]; [4],1.38
same,Emax at 100 g/ha,"Myzus persicae [3]; 144 h, 6 dat",70%
same,pest or weed control at 500 g/ha,Myzus persicae [3],100%
CN(C(=O)c1cnc(-n2cc(C#N)cn2)n1C)c1cccnc1 [I-1-008],efficacy (aphids killed),Myzus persicae [1],100%
same,Logp [n],[2]; [4],1.14
same,efficacy (aphids killed),Myzus persicae [3],100%
COc1ncn(-c2ncc(C(=O)N(C)c3cccnc3)n2C)n1 [I-1-011],Emax at 0.8 ppm,Myzus persicae [1],90%
same,Emax at 4 ppm,Myzus persicae [1],90%
same,Emax at 100 g/ha,"Myzus persicae [3]; 120 h, 5 dat",70%
CN(C(=O)c1cnc(N2CCC(c3ccccc3)CC2)n1C)c1cccnc1 [I-1-018],efficacy (aphids killed),Myzus persicae [1],100%
same,Logp [n],[2]; [4],2.38
same,efficacy (aphids killed),Myzus persicae [3],100%
CN(C(=O)c1cnc(-n2cc(Cl)cn2)n1C)c1cccnc1 [I-1-005],efficacy (aphids killed),Myzus persicae [1],100%
same,Logp [n],[2]; [4],1.49
same,efficacy (aphids killed),Myzus persicae [3],90%
CN(C(=O)c1cnc(-n2cccn2)n1C)c1cccnc1 [I-1-002],efficacy (aphids killed),Myzus persicae [1],100%
same,Logp [n],[2]; [4],1.01
same,efficacy (aphids killed),Myzus persicae [3],90%
CC1CC(C)CN(c2ncc(C(=O)N(C)c3cccnc3)n2C)C1 (centres unmarked) [I-1-020],efficacy (aphids killed),Myzus persicae [1],100%
same,Logp [n],[2]; [4],2.21
same,efficacy (aphids killed),Myzus persicae [3],100%
CN(C(=O)c1cnc(-n2ccc(Cl)n2)n1C)c1cccnc1 [I-1-004],pest or weed control at 20 ppm,Myzus persicae [1],100%
same,Emax at 0.8 ppm,Myzus persicae [1],100%
same,Emax at 4 ppm,Myzus persicae [1],100%
same,chromatographic logP,[2]; [4],1.48
same,Emax at 100 g/ha,"Myzus persicae [3]; 144 h, 6 dat",90%
same,pest or weed control at 500 g/ha,Myzus persicae [3],100%
CN(C(=O)c1cnc(N2CCCCC2)n1C)c1cccnc1 [I-1-013],efficacy (aphids killed),Myzus persicae [1],100%
same,Logp [n],[2]; [4],1.53
same,efficacy (aphids killed),Myzus persicae [3],100%
CSc1ncn(-c2ncc(C(=O)N(C)c3cccnc3)n2C)n1 [I-1-011],efficacy (aphids killed),Myzus persicae [1],100%
same,Logp [n],[2]; [4],1.27
same,efficacy (aphids killed),Myzus persicae [3],100%
CCN(C(=O)c1cnc(-n2cc(C#N)cn2)n1C)c1cccnc1 [I-1-015],pest or weed control at 20 ppm,Myzus persicae [1],100%
same,Emax at 0.8 ppm,Myzus persicae [1],100%
same,Emax at 4 ppm,Myzus persicae [1],100%
same,chromatographic logP,[2]; [4],1.42
same,pest or weed control at 500 g/ha,Myzus persicae [3],90%
same,efficacy (spider mites killed),Tetranychus urticae,90%
same,Emax at 500 g/ha,Tetranychus urticae,90%
CN(C(=O)c1cnc(N2CCC(C#N)CC2)n1C)c1cccnc1 [I-1-017],pest or weed control at 20 ppm,Myzus persicae [1],100%
same,Emax at 0.8 ppm,Myzus persicae [1],100%
same,Emax at 4 ppm,Myzus persicae [1],100%
same,chromatographic logP,[2]; [4],1.16
same,Emax at 100 g/ha,"Myzus persicae [3]; 120 h, 5 dat",90%
same,pest or weed control at 500 g/ha,Myzus persicae [3],100%
"CN(C(=O)c1cnc(-n2ccc(C(F)(F)F)n2)n1C)c1cccnc1 [I-1-007, N,1-dimethyl-N-(pyridin-3-yl)-2-[3-(trifluoromethyl)-1H-pyrazol-1-yl]-1H-imidazole-5-carboxamide]",pest or weed control at 20 ppm,Myzus persicae [1],100%
same,chromatographic logP,[2]; [4],1.87
same,pest or weed control at 500 g/ha,Myzus persicae [3],100%

# From patent US10501441B2, “Substituted imidazolylcarboxamides as pesticides” (BAYER CROPSCIENCE AKTIENGESELLSCHAFT, priority 2016, dated 2019)
